From article PMC3676778, “The Effect of the Aerial Part of Lindera akoensis on Lipopolysaccharides (LPS)-Induced Nitric Oxide Production in RAW264.7 Cells” (International Journal of Molecular Sciences, 2013)

Columns and labels:
Assay type in all cases: cell-based, murine
[1] = Cell viability (MTT) of RAW264.7 cells in the presence of LPS; settings: mouse, RAW264.7 macrophage cells, RAW 264.7 cells, 100 ng/mL LPS, mean ± SD of three replicates, read-out: Cytotoxicity IC50
Protocol: (§1) A murine macrophage cell line RAW264.7 (BCRC No. 60001) was purchased from the Bioresources Collection and Research Center (BCRC) of the Food Industry Research and Development Institute (Hsinchu, Taiwan). Cells were cultured in plastic dishes containing Dulbecco’s Modified Eagle Medium (DMEM, Sigma, St. Louis, MO, USA) supplemented with 10% fetal bovine serum (FBS, Sigma, St. Louis, MO, USA, USA) in a CO2 incubator (5% CO2 in air) at 37 °C and subcultured every 3 days at a dilution of 1:5 using 0.05% trypsin-0.02% EDTA in Ca^2+-, Mg^2+-free phosphate-buffered saline (DPBS).
(§2) Cells (2 × 105) were cultured in 96-well plate containing DMEM supplemented with 10% FBS for 1 day to become nearly confluent. Then cells were cultured with compounds 1–5 in the presence of 100 ng/mL LPS (lipopolysaccharide) for 24 h. After that, the cells were washed twice with DPBS and incubated with 100 μL of 0.5 mg/mL MTT for 2 h at 37 °C testing for cell viability. The medium was then discarded, and 100 μL dimethyl sulfoxide (DMSO) was added. After 30-min incubation, the absorbance at 570 nm was read using a microplate reader (Molecular Devices, Sunnyvale, CA, USA).
(§3) IC50 values were estimated using a non-linear regression algorithm (SigmaPlot 8.0; SPSS Inc., Chicago, IL, USA, 2002). Statistical evaluation was carried out by one-way analysis of variance (ANOVA followed by Scheffe’s multiple range tests).

[2] = test system: LPS-stimulated production of nitric oxide (NO) in RAW 264.7 cell; assay: Inhibition of LPS-induced NO (nitrite) production in RAW264.7 cells, Griess reaction; settings: RAW 264.7 cells, LPS 100 ng/mL, 24 h, nitrite by Griess, mean ± SD of three replicates
Source text: NO, produced from L-arginine by NO synthase, has various biological actions, e.g., as a defense and regulatory molecule for homeostatic equilibrium. However, in pathophysiologic conditions, such as inflammation, there is an increased production of NO by inducible NO synthase (iNOS). Macrophages have been expected to be an origin of inflammation, because they contain various chemical mediators that may be responsible for several inflammatory stages. The inhibitory activity toward NO production, induced by lipopolysaccharides (LPS), by murine macrophage-derived RAW264.7 cells, was assayed.
as §1
NO production was indirectly assessed by measuring the nitrite levels in the cultured media and serum determined by a colorimetric method based on the Griess reaction. The cells were incubated with butanolides (0, 3.125, 6.25, 12.5, 25 and 50 μg/mL) in the presence of LPS (100 ng/mL) at 37 °C for 24 h. Then, cells were dispensed into 96-well plates, and 100 μL of each supernatant was mixed with the same volume of Griess reagent (1% sulfanilamide, 0.1% naphthyl ethylenediamine dihydrochloride and 5% phosphoric acid) and incubated at room temperature for 10 min; the absorbance was measured at 540 nm with a Micro-Reader (Molecular Devices Orleans Drive, Sunnyvale, CA, USA). Serum samples were diluted four times with distilled water and deproteinized by adding 1/20 volume of zinc sulfate (300 g/L) to a final concentration of 15 g/L. After centrifugation at 10,000× g for 5 min at room temperature, 100 μL supernatant was applied to a microtiter plate well, followed by 100 μL of Griess reagent. After 10 min of color development at room temperature, the absorbance was measured at 540 nm with a Micro-Reader. By using sodium nitrite to generate a standard curve, the concentration of nitrite was measured form absorbance at 540 nm.
as §3

[3] = test system: RAW264.7 cells; assay: Cell viability (MTT) of RAW264.7 cells in the presence of LPS; settings: RAW 264.7 cells, 100 ng/mL LPS, 24 h, mean ± SD of three replicates, read-out: Cytotoxicity IC50
Protocol: as §1, §2, §3

IC50 ([2]; Mus musculus, RAW264.7) [µM] | Compound | IC50 at 24 h [1] [µM] | IC50 [3] [µM] | IC50 [2] [µM]
49.7 ± 4.5 | COc1cc([C@H]2OC[C@H]3[C@@H]2CO[C@@H]3c2cc(OC)c(O)c(OC)c2)cc(OC)c1O [Compound 8, syringaresinol] | > 239 | – | –
196 ± 4 | COc1cc(CC2COCC2Cc2ccc3c(c2)OCO3)ccc1O (stereo not shown) [Compound 6, linderinol] | > 292 | – | –
62.5 ± 2.2 | COc1ccc(-c2oc3cc(O)cc(O)c3c(=O)c2OC2OC(C)C(OC(=O)C=Cc3ccc(O)cc3)C(O)C2O)cc1 [Compound 11, 4′-O-methylkaempferol 3-O-α-L-(4″-E-p-coumaroyl)rhamnoside] | > 84.5 | – | –
312 ± 14.1 | COc1cc(C2OCC3C(=O)OCC32)ccc1O (stereo not shown) [Compound 10, salicifoliol] | > 400 | – | –
33.4 ± 1 | C#CCCCCCCCCC/C=C1/C(=O)O[C@@H](C)[C@H]1O [Compound 5, (3E,4β,5β)-3-(dodec-11-ynylidene)-4-hydroxy-5-methylbutanolide] | 143 ± 1.9 | – | –
183 ± 5.5 | COc1ccc2c(c1)c(CC(=O)O)c(C)n2C(=O)c1ccc(Cl)cc1 [indomethacin, reference compound] | – | – | –
4.1 ± 0.1 | CCCCCCCCCCC/C=C1\C(=O)O[C@@H](C)[C@H]1O [Compound 2, 3-epilistenolide D1] | 32.6 ± 0.5 | – | –
352 ± 37.4 | Oc1cc(O)c2c(c1)O[C@H](c1ccc(O)c(O)c1)[C@H](O)C2 [Compound 15, epicatechin] | > 517 | – | –
179 ± 12.1 | COc1cc(C[C@H]2COC(=O)[C@@H]2Cc2ccc(O)c(OC)c2)ccc1O [Compound 7, matairesinol] | > 279 | – | –
4.5 ± 0.1 | CCCCCCCCCCC/C=C1/C(=O)O[C@@H](C)[C@H]1O [Compound 3, 3-epilistenolide D2] | 27.7 ± 1.6 | – | –
– | (+)-pinoresinol [Compound 9] | – | > 279 | 90.4 ± 8.6
21.7 ± 0.4 | C#CCCCCCCCCC/C=C1\C(=O)O[C@@H](C)[C@@H]1O [Compound 4, (3Z,4α,5β)-3-(dodec-11-ynylidene)-4-hydroxy-5-methylbutanolide] | 139 ± 2.8 | – | –
20.1 ± 0.3 | CCCCCCCCCC/C=C/[C@@H]1C(=O)O[C@@H](C)[C@H]1O [Compound 1, 3α-((E)-Dodec-1-enyl)-4β-hydroxy-5β-methyldihydrofuran-2-one] | 78 ± 5.1 | – | –
414 ± 6.9 | Oc1cc(O)c2c(c1)O[C@H](c1ccc(O)c(O)c1)[C@@H](O)C2 [Compound 14, catechin] | > 517 | – | –

Compound | IC50 ([2]; Mus musculus, RAW264.7) [µM] | IC50 at 24 h [1] [µM] | IC50 [3] [µM] | IC50 [2] [µM]
C[C@@H]1O[C@@H](Oc2c(-c3ccc(O)cc3)oc3cc(O)cc(O)c3c2=O)[C@H](O)[C@H](O)[C@H]1OC(=O)/C=C\c1ccc(O)cc1 [Compound 12, kaempferol 3-O-α-L-(4″-Z-p-coumaroyl) rhamnoside] | 67.9 ± 1.9 | > 86.5 | – | –
C[C@@H]1O[C@@H](Oc2c(-c3ccc(O)cc3)oc3cc(O)cc(O)c3c2=O)[C@H](O)[C@H](O)[C@H]1OC(=O)/C=C/c1ccc(O)cc1 [Compound 13, 4″-p-coumaroylafzelin] | 76.9 ± 7.3 | > 86.5 | – | –
